Assay results as given in article PMC2967674 (Bioorganic & medicinal chemistry, 2009).
Where two headings read alike, the source gives them in different places. Blank lines part the entries; values can stand above or below the molecule they belong to.

How the values were obtained:
[1] = target: T1, System xc^− transporter (SXc^−) (Homo sapiens, UniProt Q9UPY5); assay type: cell-based; details: SNB-19 cells; for inhibitory activity at SXc^− (in words): initial screen at a single concentration (250 μM or 500 μM)
T1 sequence (Q9UPY5 1-501): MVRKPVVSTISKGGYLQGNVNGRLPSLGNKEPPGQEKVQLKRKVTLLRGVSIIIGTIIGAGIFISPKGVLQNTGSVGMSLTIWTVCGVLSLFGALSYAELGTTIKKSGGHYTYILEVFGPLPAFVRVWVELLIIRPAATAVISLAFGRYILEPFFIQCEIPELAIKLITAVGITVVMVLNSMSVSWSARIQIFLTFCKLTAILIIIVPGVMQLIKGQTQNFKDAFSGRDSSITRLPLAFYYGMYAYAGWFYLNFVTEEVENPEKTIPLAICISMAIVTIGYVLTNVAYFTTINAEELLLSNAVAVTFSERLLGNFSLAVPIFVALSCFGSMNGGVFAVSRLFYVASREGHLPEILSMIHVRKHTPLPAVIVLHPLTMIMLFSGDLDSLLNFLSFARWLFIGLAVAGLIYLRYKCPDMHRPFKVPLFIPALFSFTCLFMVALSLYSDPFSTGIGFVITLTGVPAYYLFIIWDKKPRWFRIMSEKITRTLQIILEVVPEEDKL
T1 sequence (P08195 1-529 partner): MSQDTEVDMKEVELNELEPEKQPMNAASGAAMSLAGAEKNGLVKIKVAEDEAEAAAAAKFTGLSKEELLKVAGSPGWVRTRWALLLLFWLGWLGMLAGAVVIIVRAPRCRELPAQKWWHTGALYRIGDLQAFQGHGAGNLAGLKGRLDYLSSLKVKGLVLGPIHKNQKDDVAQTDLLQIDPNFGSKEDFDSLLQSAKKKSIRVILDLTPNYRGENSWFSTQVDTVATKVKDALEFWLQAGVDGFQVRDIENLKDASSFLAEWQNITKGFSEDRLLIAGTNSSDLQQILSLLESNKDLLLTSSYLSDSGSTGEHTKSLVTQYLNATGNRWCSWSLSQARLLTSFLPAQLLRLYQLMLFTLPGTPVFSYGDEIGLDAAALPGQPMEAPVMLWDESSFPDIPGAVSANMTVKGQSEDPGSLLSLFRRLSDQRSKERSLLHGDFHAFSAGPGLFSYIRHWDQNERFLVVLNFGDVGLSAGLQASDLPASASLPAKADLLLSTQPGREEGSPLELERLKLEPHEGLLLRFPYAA

SXc^− [2] = details: read-out: Ki at SXc^−; cited from earlier work
SXc^− [3] = details: cited from earlier work
AMPA receptor = details: brain slice; cited from earlier work
SXc^− [4] = target: T2, SXc^− (Homo sapiens, UniProt Q9UPY5); assay type: cell-based; details: SNB-19 cells, Na-free; for substrate-induced efflux of L-Glu (substrate activity): 500 μM; for attenuation of L-Cys2-induced efflux of L-Glu: added together with L-cystine
T2 sequence (Q9UPY5 1-501): T1 sequence (Q9UPY5 1-501)
T2 sequence (P08195 1-529 partner): T1 sequence (P08195 1-529 partner)

GluR2 = details: S1S2 construct filter assay; Gouaux, personal communication; cited from earlier work
[5] = Conversion of open hydrazone to closed isoxazolo[3,4-d]pyridazinone in solution; assay type: physicochemical; details: on standing in solution, 11a to 13a

Molecule: N[C@H](C(=O)O)c1ccc(C(=O)O)cc1 [Compound 4-S-CPG, 4-S-carboxy-phenylglycine]
- Ki (SXc^− [2]): ~5 µM
- substrate activity at SXc^− (in words) (SXc^− [3]): essentially a non-substrate inhibitor

Molecule: Cc1onc(O)c1C[C@H](N)C(=O)O [Compound 6, aminomethyl isoxazole propionic acid, reference compound]
- inhibitory activity at SXc^− (in words) [1]: no discernable activity

Molecule: Cc1onc(C(=O)O)c1C[C@H](N)C(=O)O [Compound 7, amino-3-carboxy-5-methylisoxazole propionic acid, reference compound]
- inhibitory activity at SXc^− (in words) [1]: no discernable activity

Molecule: C/C(=N\NC(N)=O)c1c(C(=O)O)noc1C [Compound 9b]
- GluR2 binding (GluR2): no detectable GluR2 binding

Molecule: C/C(=N\Nc1ccc([N+](=O)[O-])cc1[N+](=O)[O-])c1c(C(=O)O)noc1C [Compound 11d, 4-{1-[(2,4-Dinitro-phenyl)-hydrazono]-ethyl}-5-methyl-isoxazole-3-carboxylic acid]
- GluR2 binding (GluR2): no detectable GluR2 binding

Molecule: C/C(=N\Nc1ccc([N+](=O)[O-])cc1[N+](=O)[O-])c1c(C(=O)O)noc1COCc1ccc2ccccc2c1 [Compound 17, 4-{1-[(2,4-Dinitro-phenyl)-hydrazono]-ethyl}-5-(naphthalen-2-ylmethoxymethyl)-isoxazole-3-carboxylic acid]
- inhibitory activity at SXc^− (in words) [1]: virtually devoid of activity

Molecule: N[C@@H](Cn1oc(=O)[nH]c1=O)C(=O)O [QA, quisqualate]
- Ki (SXc^− [2]): ~5 µM
- rate of exchange with L-Glu relative to L-Cys2 (SXc^− [3]): 35%

Molecule: L-cystine [reference compound]
- substrate-induced efflux of L-Glu (substrate activity) (SXc^− [4]): produced a significant efflux of L-glutamate over baseline

Further lines, with some results ahead:

- inhibition of SXc^−-mediated L-Glu uptake ([1]; compound 500 μM (100 minus % of control of Table 2)): 86%
- inhibitory activity at SXc^− (in words) [1]: moderate amount of inhibitory activity
Molecule: 4-{1-[(3,5-Bis-trifluoromethyl-phenyl)-hydrazono]-ethyl}-5-(2-naphthalen-2-yl-ethyl)-isoxazole-3-carboxylic acid [Compound 11e]

- inhibitory activity at SXc^− (in words) [1]: markedly inhibit
Molecule: N[C@@H](Cc1c(C(=O)O)noc1CCc1ccccc1)C(=O)O [Compound 7d]
- displacement of radiolabeled AMPA (AMPA receptor): essentially no ability to displace radiolabeled AMPA

- inhibitory activity at SXc^− (in words) [1]: markedly inhibit
Molecule: N[C@@H](Cc1c(C(=O)O)noc1COCc1ccccc1)C(=O)O [Compound 7e, 4-[(2R,S)-2-amino-2-carboxyethyl]-5-[benzyloxymethyl]isoxazole-3-carboxylic acid]

- inhibitory activity at SXc^− (in words) [1]: markedly inhibit
Molecule: N[C@@H](Cc1c(C(=O)O)noc1CCc1cccc2ccccc12)C(=O)O [Compound 7f]
- displacement of radiolabeled AMPA (AMPA receptor): essentially no ability to displace radiolabeled AMPA

- attenuation of L-Cys2-induced efflux of L-Glu (SXc^− [4]; listed as S-2-naphthyl-ACPA): attenuate L-cystine-induced efflux
- inhibitory activity at SXc^− (in words) [1]: markedly inhibit
Molecule: N[C@@H](Cc1c(C(=O)O)noc1CCc1ccc2ccccc2c1)C(=O)O [Compound 7g]
- substrate-induced efflux of L-Glu (substrate activity) (SXc^− [4]): did not induce an efflux of L-Glu over background levels
- attenuation of L-Cys2-induced efflux of L-Glu (SXc^− [4]): did attenuate the ability of L-Cys2 to exchange with intracellular L-Glu
- displacement of radiolabeled AMPA (AMPA receptor): essentially no ability to displace radiolabeled AMPA

- inhibitory activity at SXc^− (in words) [1]: moderate amount of inhibitory activity
Molecule: C/C(=N\NC(=O)Nc1ccccc1)c1c(C(=O)O)noc1C [Compound 9c]
- GluR2 binding (GluR2): no detectable GluR2 binding

- time for the open form to convert to the closed [3,4-d] form in solution [5]: a matter of a few hours
Molecule: C/C(=N\Nc1ccccc1)c1c(C(=O)O)noc1C [Compound 11a, 5-Methyl-4-[1-(phenyl-hydrazono)-ethyl]-isoxazole-3-carboxylic acid]
